Assay results as given in patent US10058587B2, “Peptide composition for cancer treatment by inhibiting TRPV6 calcium channel activity” (priority 2008, dated 2018).
Where no end group is shown, it is not given here.

Experiments:
[1] = target: T1, human TRPV6b (Homo sapiens, UniProt Q9H1D0); assay: Whole-cell patch clamp of calcium store operated current (ISOC) through TRPV6 in transfected LnCaP cells; assay type: cell-based
T1 construct: expressed in transfected cells; host or cells: LnCaP (ATCC CRL-1740), human lymph node prostate cancer cells
T1 sequence (Q9H1D0 41-765 limits assumed): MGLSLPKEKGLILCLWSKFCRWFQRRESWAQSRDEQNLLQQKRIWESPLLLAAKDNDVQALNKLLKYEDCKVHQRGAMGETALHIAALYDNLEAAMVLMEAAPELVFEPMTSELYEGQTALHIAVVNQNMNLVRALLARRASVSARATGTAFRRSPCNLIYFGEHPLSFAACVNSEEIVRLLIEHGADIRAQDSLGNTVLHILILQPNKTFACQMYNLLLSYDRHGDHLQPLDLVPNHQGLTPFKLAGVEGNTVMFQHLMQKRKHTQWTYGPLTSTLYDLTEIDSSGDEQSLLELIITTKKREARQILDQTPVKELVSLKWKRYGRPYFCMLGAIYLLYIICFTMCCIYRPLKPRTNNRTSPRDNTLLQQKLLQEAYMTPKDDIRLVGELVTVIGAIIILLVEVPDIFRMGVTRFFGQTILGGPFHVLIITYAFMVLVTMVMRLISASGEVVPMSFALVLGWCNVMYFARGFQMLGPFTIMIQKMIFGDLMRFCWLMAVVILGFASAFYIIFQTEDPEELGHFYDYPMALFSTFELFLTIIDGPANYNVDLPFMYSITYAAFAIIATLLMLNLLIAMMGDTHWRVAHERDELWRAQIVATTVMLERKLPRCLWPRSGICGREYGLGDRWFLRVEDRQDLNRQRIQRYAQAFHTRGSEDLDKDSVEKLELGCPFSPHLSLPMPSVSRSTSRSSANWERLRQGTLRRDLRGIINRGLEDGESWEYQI
Experimental: An expression vector (pCAGS-IRES-hTRPV6b) (Bodding et al. 2003) containing the nucleotide code for human TRPV6b was transfected into and expressed by human lymph node prostate cancer (LnCaP, ATCC CRL-1740). Patch clamping with whole-cell current acquisition was used to measure the calcium current through this channel. Cells were treated and calcium store operated current (ISOC) was measured with either SorC13 (n=90) or SorC27 (n=30) in a closed-circuit perfusion for 3 min at each of cumulative concentrations of 0 (baseline), 100 nM, 500 nM 1 uM, 30 uM and 100 uM. Washout perfusion was done at 2 mL/min for 3 min. […] Further, both C-peptides are very strong inhibitors of calcium current through the TRPV6 channel with inhibition constants in the 100 nM range.

[2] = system: T47D breast cancer xenografts; assay: T-47D breast cancer xenograft, SorC13 with Paclitaxel (Example 27); assay type: in vivo, NOD/SCID mice; details: for % ΔT/ΔC (tumor volume normalized to control) / Mean tumour volume: alone or with SorC13; for Mean tumour volume: after 12-day rest post-treatment; for Mean tumor volume: day 12 of treatment, alone or with SorC13 300 mg/kg
Experimental: Tumor volumes (V) were calculated by caliper measurement using standard measurements of the width (W), length (L) and thickness (T) of tumors. Animals were randomized into treatment groups so that the median tumor volumes of each group were similar at the start of dosing. Percentage ΔT/ΔC values, as a measure of efficacy, were determined where ΔC refers to change in volume of control or untreated tumor, and ΔT refers to change in volume of treated tumor.
Animals were intraperitoneally (i.p.) injected with the vehicular control, or the low, medium or high doses of CAT or CAT and SorC13. Mice received low medium or high doses of CAT or CAT and SorC13 by i.p. injection every day for 12 days or CAT injections as set out in Table 10. Paclitaxel was injected first, followed by carboplatin 30 minutes later and then SorC13. The tumor volume and body weights were measured every day. As well, general health of the animals was monitored every day.
The human […] breast cancer cell line T-47D (ATCC #HTB-133), was cultured in growth media prepared with ATCC complete growth medium. The base medium for the T-47D cell line is ATCC-formulated RPMI-1640 Medium. The complete growth medium is supplemented with 0.2 Units/ml bovine insulin and fetal bovine serum to a final concentration of 10% (v/v). Cells were cultured at 37° C. in an atmosphere of 95% air and 5% carbon dioxide with sub-culturing done according to ATCC guidelines.
The cell preparation, formulation, implantation, measurement and treatment procedures were otherwise as described in Example 26 and Table 10 but with Paclitaxel at low (6 mg/kg), medium (10 mg/kg) and high (16 mg/kg) doses.

[3] = Tissue distribution of Cy5.5-labeled peptides by optical imaging; assay type: in vivo, CD1 mice; details: four hours after i.v. injection of 100 ug
Description: SorC13 and SorC27 were labeled with the near-infrared probe, Cy5.5. SorC13 was labeled at lysine-1 and lysine-8 with the infrared fluorescent probe cy5.5 through reaction with Cy5.5 NHS ester-activated process. SorC27 was labeled at the single cysteine thiol with Cy5.5 maleamide-activated reaction. The labeled peptides were purified with a combination of size exclusion chromatography and HPLC. The label, Cy5.5, fluoresces in the infra-red region after excitation with a scanning laser. The low energy laser is able to penetrate the animal to about 1 cm and, thus, by scanning prone and supine positions, the presence of the tagged peptides can be quantified in three dimensions.
Cy5.5-labeled peptides were intravenously injected into CD1 mice (4 for each compound) at 100 ug per animal in 100 uL, and animals were imaged live using an optical imaging system, Optix eXplorer (GE Healthcare Systems) at different time points (30 min, 90 min, 4 h). […] The bio-distribution of the labeled peptides in different organs and tissues were visualized and relatively quantified by optical imaging analysis. This protocol allows for visualization of the location of the labeled peptides and how the location changes over time. […] Nodes that accumulated the labeled peptides are indicated by line 1 (superfacial cervical nodes), line 4 (axillary nodes), line 5 (brachial nodes), line 8 (mesenteric nodes) and line 9 (inguinal nodes). FIGS. 8, 9 and 10 show the amounts of labeled peptides in various organs ex vivo.

C#CCN1C(C)=C(C(=O)OC)C(c2cccc([N+](=O)[O-])c2)C(C(=O)OCC)=C1C (stereo not drawn) [MRS-1845, N-propargylnitrendipene, reference compound]
inhibition of the calcium current ([1]; positive control at 5 uM): demonstrated inhibition of the calcium current

CC(=O)O[C@H]1C(=O)[C@@]2(C)[C@H]([C@H](OC(=O)c3ccccc3)[C@]3(O)C[C@H](OC(=O)[C@H](O)[C@@H](NC(=O)c4ccccc4)c4ccccc4)C(C)=C1C3(C)C)[C@]1(OC(C)=O)CO[C@@H]1C[C@@H]2O [Paclitaxel]
% ΔT/ΔC (tumor volume normalized to control) ([2]; Day 6, high Paclitaxel (16 mg/kg)): 17.8%
% ΔT/ΔC (tumor volume normalized to control) ([2]; Day 6, low Paclitaxel (6 mg/kg)): 26.0%
% ΔT/ΔC (tumor volume normalized to control) ([2]; Day 6, medium Paclitaxel (10 mg/kg)): −4.0%
% ΔT/ΔC (tumor volume normalized to control) ([2]; Day 12, high Paclitaxel (16 mg/kg)): −96.4%
% ΔT/ΔC (tumor volume normalized to control) ([2]; Day 12, low Paclitaxel (6 mg/kg)): 16.3%
% ΔT/ΔC (tumor volume normalized to control) ([2]; Day 12, medium Paclitaxel (10 mg/kg)): −45.9%
% ΔT/ΔC (tumor volume normalized to control) ([2]; Day 18 (rest period), high Paclitaxel): −112.4%
% ΔT/ΔC (tumor volume normalized to control) ([2]; Day 18 (rest period), low Paclitaxel): 46.0%
% ΔT/ΔC (tumor volume normalized to control) ([2]; Day 18 (rest period), medium Paclitaxel): −56.9%
% ΔT/ΔC (tumor volume normalized to control) ([2]; Day 24 (rest period), high Paclitaxel): −88.4%
% ΔT/ΔC (tumor volume normalized to control) ([2]; Day 24 (rest period), low Paclitaxel): 33.3%
% ΔT/ΔC (tumor volume normalized to control) ([2]; Day 24 (rest period), medium Paclitaxel): −33.2%
Mean tumour volume ([2]; high Paclitaxel (16 mg/kg)): 20.24 mm^3
Mean tumour volume ([2]; low Paclitaxel (6 mg/kg)): 52.08 mm^3
Mean tumour volume ([2]; medium Paclitaxel (10 mg/kg)): 35.52 mm^3
Mean tumor volume ([2]; high Paclitaxel (16 mg/kg)): 26.47 mm^3
Mean tumor volume ([2]; low Paclitaxel (6 mg/kg)): 46.37 mm^3
Mean tumor volume ([2]; medium Paclitaxel (10 mg/kg)): 36.23 mm^3

HPSKVDLPR [SorC9, HPSKVDLPR]
Kd [1]: ~90 nM

SorC27-Cy5.5: SorC27 labeled at the single cysteine thiol with Cy5.5 (EGKLSSNDTEGGLC(Cy5.5)KEFLHPSKVDLPR)
accumulation at lymph nodes (superfacial cervical, axillary, branchial, mesenteric, inguinal) [3]: Significant accumulation
